In patent US7638553B2, “Hydroxamates, their manufacture and use as pharmaceutical agents” (Hoffmann-La Roche Inc., priority 2004, dated 2009) one finds IC90 and IC50 data, which are given here for five compounds.

Structures are written as SMILES.

One assay has as its system HT-29 cells. As to the kind of experiment: MTT assay on HT-29 human colon carcinoma cell line. It counts as cell-based. To be noted: MTT assay after 5 days, read-out: IC90 HT29. The protocol: To show the activity of the compounds according to this invention, their effects on a human colon carcinoma cell line was evaluated using a standard MTT-assay. MTT (3-(4,5-dimethylthiazol-2-yl)-2,5-diphenyl tetrazolium bromide) is widely used for the quantitative determination of cytotoxic effects or in vitro chemosensitivity of tumor cells. The assay is based on the cleavage of the yellow tetrazolium salt (MTT) to purple formazan crystals by metabolic active cells. For details, see Rubinstein, L. V., et al., J. Natl. Cancer Inst. 82 (1990) 1113-1118.
We proceeded as follows: HT-29 cells (human colon carcinoma cell line, ATCC-No. HTB-38) were cultivated in RPMI 1640 medium with GlutaMAX™ I (Invitrogen, Cat-No. 61870-010), 2.5% fetal calf serum (FCS, Sigma Cat-No. F4135 (FBS)), 2 mM glutamine, 100 units/ml penicillin, 100 μg/ml streptomycin (=Pen/Strep from Invitrogen Cat. No. 15140). For the assay the cells were seeded in 384 well plates, 900 cells per well, in the same medium. At the next day, the compounds (dissolved 10 mM in DMSO) were added in various concentrations ranging from 30 μM to 1.5 nM. After 5 days, the MTT assay was done mainly according to the instructions of the manufacturer (Cell proliferation kit I, MTT, from Roche Molecular Biochemicals). In brief: MTT labeling reagent was added to a final concentration of 0.5 mg/ml, added and incubated for 4 hrs at 37° C., 5% CO2. During this incubation time purple formazan crystals are formed. After addition of the solubilization solution (20% Sodium Dodecyl Sulfate (SDS) in 0.02 M HCl) the plates were incubated overnight at 37° C., 5% CO2. After careful mixing, the plates were measured in Victor 2 (scanning multiwell spectrophotometer, Wallac) at 550 nm.
A decrease in number of living cells results in a decrease in the total metabolic activity in the sample. The decrease directly correlates to the amount of purple colour resulting from the solubilization of the purple formazan crystals. Determination of IC90 was done using XL-fit (XLfit software (ID Business Solution Ltd., Guilford, Surrey, UK)).
For orientation: Formazan colour is commonly taken as a measure of viable cells.

Another assay deals with T1, recombinant HDAC-1 (Homo sapiens, UniProt Q13547).
T1 construct: made in house; host or cells: HEK 293 cells (ATCC-No. CRL 1573)
T1 sequence (Q13547 whole entry, species assumed): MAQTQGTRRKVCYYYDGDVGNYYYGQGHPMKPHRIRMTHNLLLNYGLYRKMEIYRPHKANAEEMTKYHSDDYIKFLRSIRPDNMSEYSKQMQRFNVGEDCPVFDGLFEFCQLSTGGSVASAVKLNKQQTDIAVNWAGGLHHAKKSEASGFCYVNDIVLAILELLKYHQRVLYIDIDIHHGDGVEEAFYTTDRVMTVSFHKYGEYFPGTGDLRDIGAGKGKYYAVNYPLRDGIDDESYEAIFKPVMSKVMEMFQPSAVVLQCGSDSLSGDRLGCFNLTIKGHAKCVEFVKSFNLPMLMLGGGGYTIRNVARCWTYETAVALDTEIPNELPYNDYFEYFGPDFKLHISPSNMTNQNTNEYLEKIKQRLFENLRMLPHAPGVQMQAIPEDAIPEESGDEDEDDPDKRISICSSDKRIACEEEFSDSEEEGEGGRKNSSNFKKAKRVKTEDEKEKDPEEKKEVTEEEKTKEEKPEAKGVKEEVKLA
The experiment in a line: HDAC biochemical quench assay. To be noted: recombinant HDAC-1 purified from HEK 293 cells; 1 μM peptide substrate, 90 min at room temperature. The source says: The function of histone deacetylase (HDAC) is the deacetylation of lysines in e.g. histone H4. A peptide of 17 amino acids derived from histone H4 was labeled with tetramethylrhodamine (TAMRA, fluorophore, Invitrogen) at the C-terminus and QSY-7™ (quencher dye, Invitrogen) at the N-terminus and was used as a substrate (TAMRA—first 17 aa of histone H4—QSY7). Following deacetylation by HDAC, the enzyme Lys C is able to cleave the peptide after lysine. […] Inhibition of HDAC by compounds results in low signals because Lys C could not cleave the substrate and the quench effect persists.
For dose response curves, 10 concentrations were diluted 1:3 starting at 30 μM. 10 μl compound dilution were put into each well of a 384 well plate. 10 μl HDAC were added (recombinant HDAC-1 purified from HEK 293 cells (human embryonic kidney cell line transformed by Adenovirus 5 fragments, ATCC-No. CRL 1573); enzyme activity has to be assessed for each preparation). 10 μl peptide substrate was added (1 μM final concentration, derived from 1 mM stock solution diluted 1:1000 in test buffer). After 90 min incubation at room temperature, the reaction was stopped by addition of 20 μl test buffer including 3 μg/ml Lys C and 0.075% Sodium Dodecyl Sulfate (SDS). After overnight incubation the fluorescence signal of TAMRA was measured (Victor 2 from Wallac, absorption 544 nm, emission 590 nm). […]

With `CC(NC(=O)c1ccc(C(=O)NO)s1)c1ccc(SC(F)(F)F)cc1` (centres unmarked) [Example 1, Thiophene-2,5-dicarboxylic acid 2-hydroxyamide 5-{[1-(4-trifluoromethylsulfanyl-phenyl)-ethyl]-amide}], the IC90 with HT-29 cells is 340 nM. As to `CC(NC(=O)c1ccc(C(=O)NO)s1)c1ccc(OC(F)(F)F)cc1` (centres unmarked) [Example 2-1, Thiophene-2,5-dicarboxylic acid 2-hydroxyamide 5-{[1-(4-trifluoromethoxy-phenyl)-ethyl]-amide}], on recombinant HDAC-1, the IC50 worked out at 3.11 nM. With `CC(NC(=O)c1ccc(C(=O)NO)s1)c1cccc(SC(F)(F)F)c1` (centres unmarked) [Example 2-2, Thiophene-2,5-dicarboxylic acid 2-hydroxyamide 5-{[1-(3-trifluoromethylsulfanyl-phenyl)-ethyl]-amide}], in the assay on HT-29 cells, the IC90 came out at 210 nM. As for `CSc1ccc(C(C)NC(=O)c2ccc(C(=O)NO)s2)cc1` (centres unmarked) [Example 2-3, Thiophene-2,5-dicarboxylic acid 2-hydroxyamide 5-{[1-(4-methylsulfanyl-phenyl)-ethyl]-amide}], the IC50 on recombinant HDAC-1 worked out at 2.26 nM. As to `CC(NC(=O)c1ccc(C(=O)NO)s1)c1cccc(OC(F)(F)F)c1` (centres unmarked) [Example 3, Thiophene-2,5-dicarboxylic acid 2-hydroxyamide 5-{[1-(3-trifluoromethoxy-phenyl)-ethyl]-amide}], the IC90 with HT-29 cells turned out to be 220 nM.

Broadly, the IC90 is the concentration at which the effect reaches the 90% level. As a reminder, the IC50 is the concentration at which inhibition is half-maximal.
